Assay results: paper PMC11647907 (Journal of Medicinal Chemistry, 2024)

How the values were obtained:
[1] = Liver microsomal stability, rat; type: in vitro ADME; settings: rat liver microsomes
[2] = Liver microsomal stability, human; type: in vitro ADME; settings: human liver microsomes
[3] = Liver microsomal stability, mice; type: in vitro ADME
[4] = target: T1, ClpP (Homo sapiens, UniProt Q16740); assay: In vitro enzyme assay: ClpP peptidase activity with AC-WLA-AMC; type: biochemical; settings: for EC50: EC50 (ClpP proteolytic activity), mean ± SD, n = 3
T1 sequence (Q16740 57-277): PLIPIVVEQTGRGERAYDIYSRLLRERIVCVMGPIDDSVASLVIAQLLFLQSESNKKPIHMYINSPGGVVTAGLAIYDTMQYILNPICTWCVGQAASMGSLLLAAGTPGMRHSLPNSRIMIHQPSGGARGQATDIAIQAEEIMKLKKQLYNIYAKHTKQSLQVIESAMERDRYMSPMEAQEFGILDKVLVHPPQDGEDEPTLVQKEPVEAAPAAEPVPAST

[5] = test system: SDHB and NDUFA12 in MOLM13 cells; assay: Western blotting of respiratory chain proteins, MOLM13; type: cell-based; settings: 36 h
[6] = test system: MOLM13 cells; assay: Mitochondrial membrane potential; type: cell-based; settings: MOLM13, 10 nM, 48 h, vs DMSO group
[7] = test system: SDHB and NDUFA12 in HL60 cells; assay: Western blotting of respiratory chain proteins, HL60; type: cell-based; settings: 36 h
[8] = test system: HL60 cells; assay: HL60-disseminated leukemia model, survival; type: in vivo, NSG mice
[9] = target: ClpP in MOLM13 cells (Homo sapiens, UniProt Q16740); assay: Cellular thermal shift assay; type: cell-based; settings: 10 μM, 6 h, vs control group
Chain of ClpP in MOLM13 cells (Q16740 57-277): as above

[10] = test system: MOLM13 cells; assay: Mitochondrial ROS; type: cell-based; settings: MOLM13, 38 h
[11] = PK study, oral 50 mg/kg; type: in vivo, ICR mice
[12] = target: T1, ClpP; assay: Biolayer interferometry; type: binding
[13] = test system: MOLM13 cells; assay: Cell cycle analysis; type: cell-based; settings: MOLM13, 24 h
[14] = test system: HL60 cells; assay: Mitochondrial ROS; type: cell-based; settings: HL60, 5 nM, 38 h, vs DMSO group
[15] = test system: HL60 cells; assay: Mitochondrial membrane potential; type: cell-based; settings: HL60, 10 nM, 48 h, vs DMSO group
[16] = test system: HL60 cells; assay: Growth inhibition assay; type: cell-based
[17] = test system: HL60 cells; assay: Cell cycle analysis; type: cell-based; settings: 24 h
[18] = target: ClpP in HL60 cells (Homo sapiens, UniProt Q16740); assay: Cellular thermal shift assay; type: cell-based; settings: 10 μM, 6 h, vs control group
Chain of ClpP in HL60 cells (Q16740 57-277): as above

[19] = test system: MOLM13 cells; assay: MOLM13-disseminated leukemia model, survival; type: in vivo, NSG mice; settings: 10 mg/kg, p.o, qd, 18 days
[20] = female, ICR, mouse, plasma, po, 50 mg/kg

C[C@]12CC[C@H]3[C@@H](CCC4=CC(=O)CC[C@@]43C)[C@@H]1CC[C@@H]2O [testosterone, reference compound]
Clapp [1]: 8634 mL/min/kg
Clh [1]: 54.8 mL/min/kg
Eh (%) [1]: 99.4%
half-life [1]: 0.723 min
Clapp [2]: 467 mL/min/kg
Clh [2]: 19.8 mL/min/kg
Eh (%) [2]: 95.8%
Clapp ([3]; mice liver microsomes): 8634 mL/min/kg
Clh ([3]; mice liver microsomes): 54.8 mL/min/kg
Eh (%) ([3]; mice liver microsomes): 99.4%
half-life ([3]; mouse, liver microsomes): 0.723 min

CC(c1ccccc1)N1CCC2=C(C1)C(=O)N(Cc1ccc(C(F)(F)F)cc1)C1=NCCN12 (stereo not shown) [compound 2]
EC50 [4]: 193 ± 18.9 nM

CC1CN(Cc2ccccc2)CC2=C1N1CCN=C1N(Cc1ccc(C(F)(F)F)cc1)C2=O (stereo not shown) [compound 4]
EC50 [4]: 1410 ± 20.5 nM

CC(c1ccc(C(F)(F)F)cc1)N1C(=O)C2=C(CCN(Cc3ccccc3)C2)N2CCN=C21 (stereo not shown) [compound 3]
EC50 [4]: 2659 ± 11.7 nM

C[C@@H]1CC2=C(CN1Cc1cccc(C#N)c1)C(=O)N(Cc1ccc(Br)cc1)C1=NCCN12 [CLPP-1071, (R)-3-((4-(4-Bromobenzyl)-8-methyl-5-oxo-1,2,4,5,8,9-hexahydroimidazo[1,2-a]pyrido[3,4-e]pyrimidin-7(6H)-yl)methyl)benzonitrile]
SDHB and NDUFA12 protein levels ([5]; MOLM13, 1 nM): decreased
SDHB and NDUFA12 protein levels ([5]; MOLM13, 10 nM): mostly disappeared
mitochondrial membrane potential (MMP) [6]: significantly decreased MMP
SDHB and NDUFA12 protein levels ([7]; HL60, 1 nM): decreased
SDHB and NDUFA12 protein levels ([7]; HL60, 10 nM): mostly disappeared
Clapp [1]: 906 mL/min/kg
Clh [1]: 52.0 mL/min/kg
Eh (%) [1]: 94.3%
half-life [1]: 6.89 min
survival of female NSG mice ([8]; HL60 model, 5 and 10 mg/kg, p.o, qd, 19 days): dose-dependently extended the survival
survival periods in mice ([8]; disseminated model, 5 mg/kg, stronger effects compared to 10 mg/kg ONC212): significantly prolonged survival periods
thermal stability of ClpP (CETSA) [9]: effectively stabilized ClpP protein at higher temperatures
ROS levels [10]: significant increase in the ROS levels
AUC0–∞, times higher than that of ONC212 ([11]; PO 50 mg/kg, mice): approximately 1.5 times
AUC(0-inf) [11, 20]: 9840 ± 990 ng·h/mL
AUC(0-t) [11, 20]: 9010 ± 1320 ng·h/mL
Cmax [11, 20]: 3420 ± 570 ng/mL
MRT [11, 20]: 157 ± 24.6 min
Tmax [11, 20]: 30 ± 25.8 min
half-life [11, 20]: 87 ± 19.8 min
Kd [12]: 26.9 nM
percentage of cells arrested in G1 ([13]; higher dose (dose not given)): 73%
percentage of cells arrested in G1 ([13]; lower dose (dose not given)): 65%
Clapp [2]: 296 mL/min/kg
Clh [2]: 19.3 mL/min/kg
Eh (%) [2]: 93.5%
half-life [2]: 13.7 min
ROS accumulation [14]: pronounced elevation in ROS accumulation
mitochondrial membrane potential (MMP) [15]: significantly decreased MMP
IC50 ([16]; read-out: HL60 IC50, HL60 cells, 72 h, mean ± SD, n = 3, listed as 52a): 4.61 ± 0.21 nM
inhibition of proliferation of HL60 cells, fold stronger than ONC201 ([16]; vs ONC201): 169.2 fold
percentage of cells arrested in G1 ([17]; HL60, 10 nM): 50%
percentage of cells arrested in G1 ([17]; HL60, 100 nM): 60%
thermal stability of ClpP (CETSA) [18]: effectively stabilized ClpP protein at higher temperatures
survival of female NSG mice [19]: extended the survival
EC50 [4]: 23.5 nM
ClpP agonistic activity, fold stronger than ONC201 ([4]; vs ONC201): 107.1 fold

CC1(C)CN(Cc2ccccc2)CC2=C1N1CCN=C1N(Cc1ccc(C(F)(F)F)cc1)C2=O [compound 5]
EC50 [4]: 1650 ± 84.5 nM
